US20220280507A1, “USES OF 5-METHYLTETRAHYDROFOLATE AND ITS COMPOSITION” (Lianyungang Jinkang Hexin Pharmaceutical Co., Ltd., priority 2019, published 2022)
Where two headings read alike, the source gives them in different places.

Legend:
[1] = tested on: alcoholic liver damage and fatty liver; experiment: Alcoholic fatty liver model, serum TG, TC, SOD, MDA and liver histopathology; format: in vivo, SD rats; settings: for MDA / SOD: day 61, liquor model; for MDA / SOD / TC / TG: n=16; for Pathological examination of liver: liquor model; for TC / TG: serum day 61, liquor model
Experimental: 96 SPF-grade SD rats were chosen in half female and half male with an average weight of 176-220 g at the beginning of the experiment. According to their weight, they were randomly divided into vehicle control group (purified water, ig), model control group (liquor, 10 ml·Kg−1), positive control group (bicyclol, 50 mg·Kg−1, ig), folic acid calcium salt high-dose group (4 mg·Kg−1), folic acid calcium salt medium-dose group (2 mg·Kg−1), folic acid calcium salt low-dose group (1 mg·Kg−1), in half female and half male, and 16 rats in each group. Purified water was used as a negative control, and bicyclol (place of origin: Beijing Xiehe Pharmaceutical Factory, specification: 25 mg/tablet, batch number: H20040467) was used as a positive control drug. Route of administration: all were administered by oral gavage. Dosage of administration: 1 mg·Kg−1, 2 mg·Kg−1, and 4 mg·Kg−1. Frequency of administration: once a day for 60 consecutive days. Erguotou (batch number: 201603092, specification: 2L, place of origin: Beijing Shunxin Agriculture Co., Ltd.) model establishing method: gavage with diluted 56-degree Erguotou twice a day for 60 consecutive days.
Method of administration: administration started at prescribed doses on the day of modeling for 60 consecutive days and ended at the 60th day. At the same time, rats in each group were weighed every other week during administration period to monitor their body weight changes. On the 61st day, rats were dissected and serum was collected for determination of triglyceride (TG), total cholesterol (TC), malondialdehyde (MDA), superoxide dismutase (SOD) and liver histopathologic examination. The brain tissue of rats was taken out, and hippocampus tissue was separated on ice plate, prepared to homogenate with a mass fraction of 10% with purified water, then the homogenate was centrifuged to obtain supernatant. ELISA was used to detect the levels of inflammatory factors TNF-α and IL-1β in hippocampus tissue with continuous spectrum scanning microplate reader.

mice after drinking = settings: n=10
Experimental: Experiment 8 Tail Suspension Test and Swimming Test in Mice after Drinking
Clean-grade male Kunming mice, weighing 18-22 g, were chosen. The test was carried out at 23° C. with a humidity of 50%. The mice ate and drank freely, adapting to the environment for 5 days before the test. Then they were divided into 5 groups: model group, normal group, high-dose 5-MTHF-Ca group, medium-dose 5-MTHF-Ca group and low-dose 5-MTHF-Ca group (16 mg·Kg−1, 8mg·Kg−1, 4mg·Kg−1),
10 mice in each group. The model group was given (by gavage) Erguotou (batch number: 201603092, specification: 2L, place of origin: Beijing Shunxin Agriculture Co., Ltd.) at 18 ml·Kg−1, and calcium folate (Lianyungang Jinkang Hexin Pharmaceutical Co., Ltd.). The high-dose, medium-dose and low-dose groups were also given the solution containing Erguotou and calcium folate. The mice were tested after 24 h. The tail suspension test is carried out by fixing the tail of a mouse so that it is suspended head down in a state of desperately struggling to escape but unable to escape. After a period of time, record the immobility time of the mouse in a desperate state in this environment to observe the therapeutic effect after administration. The head of the mouse suspended upside down was 10 cm from the bottom of the box, and two mice were suspended at a time, which were separated by a partition to avoid collision. The mice were suspended for 10 min, and the accumulated immobility time of the suspended mice was counted within the latter 5 min. The results are as follows:
The mice were placed in a plastic swimming box with a length of 50 cm, a width of 40 cm and a height of 40 cm. The time was counted for 10 min after the mice were placed in the water. The accumulated immobility time of the mice with only slight limb movements and no struggling, and remaining afloat was recorded within the latter 5 min.

homocysteine (Hcy) = experiment: Homocysteine (Hcy) in plasma of alcohol drinking rats; format: in vivo, SD rats; settings: plasma 6 h after Erguotou 20 ml·Kg−1
Experimental: Experiment 2 Effect of 5-methyltetrahydrofolate on homocysteine (Hcy) in plasma of alcohol drinking rats.
30 SPF-grade SD rats were chosen in half male and half female, and divided into 5 groups with 6 rats in each group, including normal group, model group, positive drug group (Weihe Liver Protectant), 5-methyltetrahydrofolate administration groups (4 mg·Kg−1 medium dose group, 8 mg·Kg−1 high dose group, respectively). After fasting for 12 h, the administration groups were given Weihe Liver Protectant at 50 mg·kg−1, 5-methyltetrahydrofolate (Jinkang Hexin product) at 4 mg·Kg−1, 5-methyltetrahydrofolate (Jinkang Hexin product) at 8 mg·Kg−1, respectively. […] 6 h after drinking, blood was collected from the eye socket, treated with 0.5% EDTA-Na for anticoagulation (10 ml/L), immediately cooled in an ice bath, and centrifuged at 4° C. (3500r/min) for 15 min within 30 min. Plasma was collected and stored at −20° C. The plasma Hcy concentration was determined with high pressure liquid chromatography-fluorescence detection method.

| Molecule | MDA ([1]; 1 mg·kg−1·d−1 ig 60 d) | SOD ([1]; 1 mg·kg−1·d−1 ig 60 d) | MDA ([1]; 2 mg·kg−1·d−1 ig 60 d) | SOD ([1]; 2 mg·kg−1·d−1 ig 60 d) | MDA ([1]; 4 mg·kg−1·d−1 ig 60 d) | SOD ([1]; 4 mg·kg−1·d−1 ig 60 d) | Pathological examination of liver ([1]; high-dose group 4 mg·Kg−1 ig 60 d) | Pathological examination of liver ([1]; low-dose group 1 mg·Kg−1 ig 60 d) | Pathological examination of liver ([1]; medium-dose group 2 mg·Kg−1 ig 60 d) | TC ([1]; 1 mg·kg−1·d−1 ig 60 d) | TG ([1]; 1 mg·kg−1·d−1 ig 60 d) | TC ([1]; 2 mg·kg−1·d−1 ig 60 d) | TG ([1]; 2 mg·kg−1·d−1 ig 60 d) | TC ([1]; 4 mg·kg−1·d−1 ig 60 d) | TG ([1]; 4 mg·kg−1·d−1 ig 60 d) | Swimming immobility time (mice after drinking; high dose 16 mg·Kg−1 with Erguotou 18 ml·Kg−1, tested after 24 h) | Swimming immobility time (mice after drinking; low dose 4 mg·Kg−1 with Erguotou 18 ml·Kg−1, tested after 24 h) | Swimming immobility time (mice after drinking; medium dose 8 mg·Kg−1 with Erguotou 18 ml·Kg−1, tested after 24 h) | Hcy (homocysteine (Hcy); 4 mg·Kg−1, n=6) | Hcy (homocysteine (Hcy); 8 mg·Kg−1, n=6) |
| --- | --- | --- | --- | --- | --- | --- | --- | --- | --- | --- | --- | --- | --- | --- | --- | --- | --- | --- | --- | --- |
| 5-methyltetrahydrofolate calcium | 45.20 ± 8.17 nmol/mgprot | 253.20 ± 24.66 U/mgprot | 42.17 ± 8.65 nmol/mgprot | 257.41 ± 31.28 U/mgprot | 47.96 ± 10.28 nmol/mgprot | 248.87 ± 34.64 U/mgprot | no hyperplasia of interstitial connective tissue and fatty degeneration of hepatocytes | a few fatty vacuoles in hepatocytes, and no obvious hyperplasia of interstitial connective tissue | no hyperplasia of interstitial connective tissue and fatty degeneration of hepatocytes | 1.42 ± 0.36 mmol/L | 1.08 ± 0.34 mmol/L | 1.50 ± 0.37 mmol/L | 1.03 ± 0.50 mmol/L | 1.47 ± 0.44 mmol/L | 1.04 ± 0.43 mmol/L | 104.64 ± 5.24 S | 123.56 ± 3.64 S | 110.42 ± 2.64 S |  |  |
| CN1c2c([nH]c(N)nc2=O)NCC1CNc1ccc(C(=O)N[C@@H](CCC(=O)O)C(=O)O)cc1 (stereo partly drawn) [5-methyltetrahydrofolate, N-[4-[[(2-amino-1,4,5,6,7,8-hexahydro-4-oxo-5-methyl-(6S), -(6R), and (6R,S)-pteridyl)methyl)amino)toluoyl-glutamic acid] |  |  |  |  |  |  |  |  |  |  |  |  |  |  |  |  |  |  | 3.13 ± 1.26 µmol/L | 2.32 ± 1.49 µmol/L |
